30 compounds from patent US6875761B2 (Eisai Co., Ltd., priority 1997, dated 2005) can be followed below.

Assay [1] has as its target T1, serotonin 1A receptor (Rattus norvegicus, UniProt P19327).
T1 construct: To the receptor fraction of the hippocampus were added a test compound and 0.5 nM of [^3H]; 8-hydroxy-dipropylaminotetralin; from tissue; host or cells: rat hippocampus membrane fraction
T1 sequence (P19327 1-422): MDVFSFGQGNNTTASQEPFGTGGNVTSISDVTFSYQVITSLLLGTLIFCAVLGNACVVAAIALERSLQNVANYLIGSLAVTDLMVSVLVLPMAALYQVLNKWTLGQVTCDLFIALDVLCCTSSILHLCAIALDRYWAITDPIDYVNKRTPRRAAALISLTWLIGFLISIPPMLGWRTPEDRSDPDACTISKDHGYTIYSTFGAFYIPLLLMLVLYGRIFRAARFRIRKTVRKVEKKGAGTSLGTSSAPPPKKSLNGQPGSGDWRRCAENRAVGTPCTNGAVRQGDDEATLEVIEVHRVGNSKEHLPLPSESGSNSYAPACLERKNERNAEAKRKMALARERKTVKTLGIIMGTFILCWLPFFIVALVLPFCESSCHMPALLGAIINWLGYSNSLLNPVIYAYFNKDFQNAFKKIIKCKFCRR
The experiment in a line: Binding test on [3H] 8-hydroxy-dipropylaminotetralin, hippocampus receptor fraction. Details: species or system SD rats. As to conditions: rat hippocampus receptor fraction, 0.5 nM [3H] 8-OH-DPAT, room temperature 30 min; read-out: 5HT1.

The target in assay [2] is T2, serotonin 2 receptor (Rattus norvegicus, UniProt P14842).
T2 construct: To the receptor fraction of the cerebral cortex were added a test compound and 0.3 nM of [^3H] ketanserin; from tissue; host or cells: rat cerebral cortex membrane fraction
T2 sequence (P14842 whole entry): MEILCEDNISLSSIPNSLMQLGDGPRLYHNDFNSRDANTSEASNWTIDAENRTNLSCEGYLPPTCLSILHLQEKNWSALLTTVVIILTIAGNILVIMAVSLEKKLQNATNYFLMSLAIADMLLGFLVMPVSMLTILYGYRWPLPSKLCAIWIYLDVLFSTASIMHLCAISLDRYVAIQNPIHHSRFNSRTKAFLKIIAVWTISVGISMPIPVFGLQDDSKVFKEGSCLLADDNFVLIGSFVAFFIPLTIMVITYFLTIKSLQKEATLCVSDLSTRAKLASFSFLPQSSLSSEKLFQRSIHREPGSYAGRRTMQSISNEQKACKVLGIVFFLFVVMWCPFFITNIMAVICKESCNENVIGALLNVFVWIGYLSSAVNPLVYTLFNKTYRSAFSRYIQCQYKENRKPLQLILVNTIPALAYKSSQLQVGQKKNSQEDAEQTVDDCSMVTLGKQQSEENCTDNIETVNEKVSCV
The experiment in a line: Binding test on [3H] ketanserin, cerebral cortex receptor fraction. Also noted: species or system SD rats. The settings on record: 0.3 nM [3H] ketanserin, 37° C. 15 min, read-out: 5HT2.

Counter-ions that a name gives are not always drawn.

On to `CCN1CCN(c2nc(-c3ccc([C@@H]4C[C@H](O)CCO4)cc3)cc3ccccc23)CC1` (relative stereo) [Example 401, 1-(4-Ethylpiperazin-1-yl)-3-[4-(cis-4-Hydroxytetrahydropyran-2-yl)Phenyl]Isoquinoline Dihydrochloride], for which the Ki in assay [1] came out at 31.3 nM; in assay [2], 3.4 nM.
As to `CCN1CCN(c2nc(-c3ccc([C@@H]4C[C@@H](O)CCO4)cc3)cc3ccccc23)CC1` (relative stereo) [Example 402, 1-(4-Ethylpiperazin-1-yl)-3-[4-(trans-4-Hydroxytetrahydropyran-2-yl)Phenyl]Isoquinoline Dihydrochloride], the Ki in assay [1] stood at 23.7 nM; in assay [2] it was 2.1 nM.
Consider `CCN1CCN(c2nc(-c3ccc([C@@H]4C[C@H](O)CCO4)cc3)cc3ccsc23)CC1` (relative stereo) [Example 454, 7-(4-Ethylpiperazin-1-yl)-5-[4-(cis-4-hydroxytetrahydropyran-2-yl)phenyl]thieno[2,3-c]pyridine dihydrochloride], for which the values for the Ki in assay [1] and in assay [2] were 67.4 nM and 26.5 nM, respectively.
Take `CCN1CCN(c2nc(-c3ccc([C@@H]4C[C@@H](O)CCO4)cc3)cc3ccsc23)CC1` (relative stereo) [Example 455, 7-(4-ethylpiperazin-1-yl)-5-[4-(trans-4-hydroxytetrahydropyran-2-yl)phenyl]thieno[2,3-c]pyridine dihydrochloride]: the Ki in assay [1] came out at 50.3 nM; in assay [2] it was 40 nM.
For `CCN1CCN(c2nc(C=C(COC)c3ccccc3)cc3ccccc23)CC1` (stereo in doubt) [Example 208, 3-[(E)-2-Methoxymethyl-2-Phenylethenyl]-1-(4-Ethylpiperazin-1-Yl)Isoquinoline Oxalate] the same measures were 91.6 nM and 7.62 nM.
`CCN1CCN(c2nc(-c3ccc(OCC(C)O)cc3)cc3cccnc23)CC1` (stereo in doubt) [Example 246, 8-(1-ethylpiperazin-4-yl)-6-{4-[(S)-2-hydroxypropoxy}phenyl]-1,7-naphthyridine Dihydrochloride]: the Ki in assay [1] was determined as 87 nM; in assay [2] it was 13.9 nM.
`CCN1CCN(c2nc(-c3ccc(OCC(C)O)cc3)cc3ccoc23)CC1` (stereo in doubt) [Example 304, 7-(1-ethylpiperazin-4-yl)-5-[4-[(S)-2-hydroxypropoxy]phenyl)furo[2,3-c]pyridine dihydrochloride]: the Ki was determined as 15.4 nM in assay [1] and 19.4 nM in assay [2].
Take `CCN1CCN(c2nc(-c3ccc(O[C@H](C)CO)cc3)cc3sccc23)CC1` (stereo in doubt) [Example 463, 4-(4-ethylpiperazin-1-yl)-6-[4-(2-hydroxy-1-methylethoxy)phenyl]thieno[3,2-c]pyridine dihydrochloride]: the Ki in assay [1] is 6.98 nM; in assay [2], 20.9 nM.
In the same order, the values of `CCN1CCN(c2nc(-c3ccnc(OCc4ccccc4)c3)cc3ccccc23)CC1` [406 2-Benzyloxy, 1-(4-ethylpiperazin-1-yl)-3-(2-benzyloxypyridin-4-yl)isoquinoline] are 46 nM and 88.1 nM.
For `CCN1CCN(c2nc(-c3ccnc(Cl)c3)cc3ccccc23)CC1` [406 2-chloro, 1-(4-ethylpiperazin-1-yl)-3-(2-chloropyridin-4-yl)isoquinoline], the Ki was 12.2 nM in assay [1] and 11.1 nM in assay [2].
For `CN(C)CCC=C1c2ccccc2C=Cc2ccccc21` [Cyclobenzaprine, cyclobenzaprine hydrochloride, reference compound] the same measures were 25 nM and 29 nM.
Turning to `CN1CCN(c2nc(-c3ccc(OCCO)cc3)cc3ccccc23)CC1` [Example 3, 1-(1-methylpiperazin-4-yl)-3-[4-(2-hydroxyethoxy)phenyl]isoquinoline], the results for the Ki in assay [1] and in assay [2] were 65 nM and 3.8 nM, respectively.
On to `CCN1CCN(c2nc(-c3ccc(C(F)(F)F)cc3)cc3ccccc23)CC1` [Example 4, 1-(4-ethylpiperazin-1-yl)-3-(4-trifluoromethylphenyl)isoquinoline Dihydrochloride], for which the Ki in assay [1] came to 71 nM; in assay [2], 74.9 nM.
For `CCC(F)c1ccc(-c2cc3ccccc3c(N3CCN(CC)CC3)n2)cc1` (stereo not drawn) [Example 5, 1-(4-ethylpiperazin-1-yl)-3-[4-(1-fluoropropyl)phenyl]isoquinoline Hydrochloride], the values for the Ki in assay [1] and in assay [2] were 21 nM and 2.2 nM, respectively.
In the case of `CCN1CCN(c2nc(-c3cccc(OC)c3)cc3ccccc23)CC1` [Example 9, 1-(4-ethylpiperazin-1-yl)-3-(3-methoxyphenyl)isoquinone Dihydrochloride], the values for the Ki in assay [1] and in assay [2] were 57 nM and 24.5 nM, respectively.
`CCN1CCN(c2nc(-c3ccc(OC)cc3)cc3ccccc23)CC1` [Example 10, 1-(4-Ethylpiperazin-1-yl)-3-(4-methoxyphenyl)isoquinoline]: the Ki in assay [1] was found to be 60 nM; in assay [2] it was 11 nM.
With `CCN1CCN(c2nc(-c3ccc(OC)c(OC)c3)cc3ccccc23)CC1` [Example 14, 3-(3,4-dimethoxyphenyl)-1-(4-ethylpiperazin-1-yl)isoquinoline Dihydrochloride], the Ki in assay [1] was determined as 23 nM; in assay [2], 35 nM.
Consider `CCN1CCN(c2nc(-c3cc(OC)cc(OC)c3)cc3ccccc23)CC1` [Example 15, 3-(3,5-dimethoxyphenyl)-1-(4-ethylpiperazin-1-yl)isoquinoline Dihydrochloride], for which the values for the Ki in assay [1] and in assay [2] were 55.5 nM and 19.5 nM, respectively.
Turning to `CCN1CCN(c2nc(-c3ccc(CO)cc3)cc3ccccc23)CC1` [Example 17, 1-(4-ethylpiperazin-1-yl)-3-(4-hydroxymethylphenyl)isoquinoline hydrochloride], the Ki in assay [1] turned out to be 11.1 nM; in assay [2], 26.8 nM.
`CCN1CCN(c2nc(-c3ccc(C(O)CCO)cc3)cc3ccccc23)CC1` (stereo not drawn) [Example 24, 3-[4-(1,3-dihydroxypropyl)phenyl]-1-(4-ethylpiperazin-1-yl)isoquinoline hydrochloride]: the Ki in assay [1] turned out to be 11.7 nM; in assay [2], 7.4 nM.
With `CCN1CCN(c2nc(-c3ccc(C(O)CC(C)(C)O)cc3)cc3ccccc23)CC1` (stereo not drawn) [Example 25, 3-[4-(1,3-dihydroxy-3-methylbutyl)phenyl]-1-(4-ethylpiperazin-1-yl)isoquinoline], the Ki in assay [1] worked out at 21.5 nM; in assay [2], 3.4 nM.
With `CCN1CCN(c2nc(-c3ccc(C(CC(C)O)OC)cc3)cc3ccccc23)CC1` (stereo not drawn) [Example 26, 3-[4-(3-hydroxy-1-methoxybutyl)phenyl]-1-(4-ethylpiperazin-1-yl)isoquinoline], the Ki amounted to 8.5 nM in assay [1] and 55 nM in assay [2].
For the compound `CCN1CCN(c2nc(-c3ccc(C(F)CCO)cc3)cc3ccccc23)CC1` (stereo not drawn) [Example 27, 1-(1-Ethylpiperazin-4-yl)-3-[4-(3-hydroxy-1-fluoropropyl)phenyl]isoquinoline], the Ki came out at 29.4 nM in assay [1] and 2.47 nM in assay [2].
As for `CCN1CCN(c2nc(-c3ccc(CO)c(F)c3)cc3ccccc23)CC1` [Example 28, 1-(4-ethylpiperazin-1-yl)-3-[4-(4-hydroxymethyl-3-fluoro)phenyl]isoquinoline hydrochloride], the Ki came out at 24.4 nM in assay [1] and 9.1 nM in assay [2].
Take `CCN1CCN(c2nc(-c3ccc(CCCO)c(Cl)c3)cc3ccccc23)CC1` [Example 30, 3-[3-chloro-4-(3-hydroxypropyl)phenyl]-1-(4-ethylpiperazin-1-yl)isoquinoline hydrochloride]: the values for the Ki in assay [1] and in assay [2] were 10.7 nM and 6.3 nM, respectively.
As for `CCN1CCN(c2nc(-c3ccc(OC)c(CCCO)c3)cc3ccccc23)CC1` [Example 34, 3-[3-(3-hydroxypropyl)-4-methoxyphenyl]-1-(4-ethylpiperazin-1-yl)isoquinoline hydrochloride], the values for the Ki in assay [1] and in assay [2] were 23.5 nM and 17.3 nM, respectively.
Take `CCN1CCN(c2nc(-c3ccc(OC)c(CCCCO)c3)cc3ccccc23)CC1` [Example 35, 3-[3-(4-hydroxybutyl)-4-methoxyphenyl]-1-(4-ethylpiperazin-1-yl)isoquinoline hydrochloride]: the values for the Ki in assay [1] and in assay [2] were 35.3 nM and 5.7 nM, respectively.
For `CCN1CCN(c2nc(-c3cc(OCCO)cc(OCCO)c3)cc3ccccc23)CC1` [Example 38, 3-[3,5-di(2-hydroxyethoxy)phenyl]-1-(4-ethylpiperazin-1-yl)isoquinoline hydrochloride], the Ki in assay [1] worked out at 20.8 nM; in assay [2], 75.7 nM.
Take `CCN1CCN(c2nc(-c3ccc(OCCO)c(Cl)c3)cc3ccccc23)CC1` [Example 39, 3-[3-chloro-4-(2-hydroxyethoxy)phenyl]-1-(4-ethylpiperazin-1-yl)isoquinoline hydrochloride]: the values for the Ki in assay [1] and in assay [2] were 26 nM and 4.9 nM, respectively.
Take `CCN1CCN(c2nc(-c3ccc(OCCO)c(C)c3)cc3ccccc23)CC1` [Example 40, 3-[3-methyl-4-(2-hydroxyethoxy)phenyl]-1-(4-ethylpiperazin-1-yl)isoquinoline hydrochloride]: the Ki in assay [1] is 26.7 nM; in assay [2], 3.1 nM.
